This test concerns HCT116. Conditions: 72 h. The essentials:
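Luminescence was read with CellTiter-Glo in HCT116 cells seeded at 250 per well in 1536-well plates. Signals were scaled between vehicle at 0% and positive control at -100%, then pattern-corrected. IC50 and maximal efficacy were obtained by fitting a four-parameter Hill equation.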

Structures can show the parent of a compound that is named as a salt.

`CC1=C2[C@H]3OC(=O)[C@@H](C)[C@@H]3CC[C@@]2(C)C=CC1=O` [alpha-Santonin]: the IC50 cell viability was greater than 45.8 µM (ICRF193 0 nM) and greater than 45.8 µM (ICRF193 200 nM).
`COc1cc(CC2NCCc3cc(O)c(O)cc32)cc(OC)c1OC` (centres undefined) [Trimethoquinol]: the IC50 cell viability was greater than 45.8 µM (ICRF193 0 nM) and greater than 45.8 µM (ICRF193 200 nM).
Regarding `COc1cc(/C=C/C(=O)N2CCN(CC(=O)N3CCCC3)CC2)cc(OC)c1OC` [Cinepazide Maleate], the IC50 cell viability runs as follows: (ICRF193 0 nM) greater than 45.8 µM; (ICRF193 200 nM) greater than 45.8 µM.
Regarding `C[Si](C)(C)O[Si](C)(C)O[Si](C)(C)C` [Trisiloxane, octamethyl-], the IC50 cell viability is, setting by setting: (ICRF193 0 nM) greater than 45.8 µM; (ICRF193 200 nM) greater than 45.8 µM.
As to `CCCCC(CC)CCC(CC(C)C)OS(=O)(=O)O` (centres undefined) [SODIUM TETRADECYL SULFATE], the IC50 cell viability is, setting by setting: (ICRF193 0 nM) greater than 45.8 µM; (ICRF193 200 nM) greater than 45.8 µM.
In turn, `Cc1nc2n(c(=O)c1CCN1CCC(c3noc4cc(F)ccc34)CC1)CCCC2O` (centres undefined) [Paliperidone] came in with an IC50 cell viability (ICRF193 0 nM) greater than 45.8 µM and an IC50 cell viability (ICRF193 200 nM) greater than 45.8 µM.
Regarding `NCc1ccccc1CC(=O)N[C@@H]1C(=O)N2C(C(=O)O)=C(CSc3nnnn3CC(=O)O)CS[C@H]12` [Ceforanide], the IC50 cell viability (ICRF193 0 nM) is greater than 45.8 µM and the IC50 cell viability (ICRF193 200 nM) was greater than 45.8 µM.
Take `O=C(NCC1CCCCN1)c1cc(OCC(F)(F)F)ccc1OCC(F)(F)F` (centres undefined) [Flecainide]: the IC50 cell viability is greater than 45.8 µM (ICRF193 0 nM) and greater than 45.8 µM (ICRF193 200 nM).
With `Nc1ccc(S(=O)(=O)c2ccc(N)cc2)cc1` [Dapsone], the IC50 cell viability was greater than 45.8 µM (ICRF193 0 nM) and greater than 45.8 µM (ICRF193 200 nM).
For the compound `CCOc1ccc(C[C@H]2NC(=O)CCSSC[C@@H](C(=O)N3CCC[C@H]3C(=O)N[C@@H](CCCN)C(=O)NCC(N)=O)NC(=O)[C@H](CC(N)=O)NC(=O)[C@H]([C@@H](C)O)NC(=O)[C@H]([C@@H](C)CC)NC2=O)cc1` [Atosiban], the IC50 cell viability is, setting by setting: (ICRF193 0 nM) greater than 45.8 µM; (ICRF193 200 nM) greater than 45.8 µM.
On to `CC(=C(CCO)SSCC1CCCO1)N(C=O)Cc1cnc(C)nc1N` (stereo in doubt) [Fursultiamine Hydrochloride], for which the IC50 cell viability was greater than 45.8 µM (ICRF193 0 nM) and greater than 45.8 µM (ICRF193 200 nM).
With `Nc1cc(-c2ccncc2)c[nH]c1=O` [Amrinone], the IC50 cell viability reads like this: (ICRF193 0 nM) greater than 45.8 µM; (ICRF193 200 nM) greater than 45.8 µM.
For `CCOC(=O)NNc1ccc(N(CC)CC(C)O)nn1` (centres undefined) [Cadralazine], the IC50 cell viability reads like this: (ICRF193 0 nM) greater than 45.8 µM; (ICRF193 200 nM) greater than 45.8 µM.
With `CN(C)[C@@H]1C(O)=C(C(N)=O)C(=O)[C@@]2(O)C(O)=C3C(=O)c4c(O)ccc(Cl)c4[C@@](C)(O)[C@H]3C[C@@H]12` [Chlortetracycline HCl], the IC50 cell viability is, setting by setting: (ICRF193 0 nM) greater than 45.8 µM; (ICRF193 200 nM) greater than 45.8 µM.
As to `CC(NCCc1ccc(O)cc1)C(O)c1ccc(O)cc1` (centres undefined) [Ritodrine hydrochloride], the IC50 cell viability is, setting by setting: (ICRF193 0 nM) greater than 45.8 µM; (ICRF193 200 nM) greater than 45.8 µM.
For the compound `CCOC(=O)CC(SP(=S)(OC)OC)C(=O)OCC` (centres undefined) [Malathion], the IC50 cell viability (ICRF193 0 nM) was greater than 45.8 µM and the IC50 cell viability (ICRF193 200 nM) is greater than 45.8 µM.
With `O=C(O)C(=O)Nc1cccc(-c2nnn[nH]2)c1` [Acitazanolast], the IC50 cell viability (ICRF193 0 nM) was greater than 45.8 µM and the IC50 cell viability (ICRF193 200 nM) was greater than 45.8 µM.
For the compound `C=C1CCN([C@H](C)[C@](O)(Cn2cncn2)c2ccc(F)cc2F)CC1` [Efinaconazole], the IC50 cell viability reads like this: (ICRF193 0 nM) greater than 45.8 µM; (ICRF193 200 nM) greater than 45.8 µM.
In the case of `Cc1c(N(C)C)c(=O)n(-c2ccccc2)n1C` [4-Dimethylaminoantipyrine], the IC50 cell viability reads like this: (ICRF193 0 nM) greater than 45.8 µM; (ICRF193 200 nM) greater than 45.8 µM.
Compound `C[C@]12C=CC(=O)C=C1CC[C@@H]1[C@@H]2[C@@H](O)C[C@@]2(C)[C@H]1CC[C@]2(O)C(=O)COP(=O)(O)O` [Prednisolone Phosphate (sodium salt)] returned an IC50 cell viability (ICRF193 0 nM) greater than 45.8 µM and an IC50 cell viability (ICRF193 200 nM) greater than 45.8 µM.
On to `CO/N=C(\C(=O)N[C@@H]1C(=O)N2C(C(=O)O)=C(CSc3nc(=O)c(O)nn3C)CS[C@H]12)c1csc(N)n1` [Ceftriaxone disodium trihydrate], for which the IC50 cell viability reads like this: (ICRF193 0 nM) greater than 45.8 µM; (ICRF193 200 nM) greater than 45.8 µM.
With `CC1=C(C)C(=O)C(C(CCCCCC(=O)O)c2ccccc2)=C(C)C1=O` (centres undefined) [Seratrodast], the IC50 cell viability (ICRF193 0 nM) is greater than 45.8 µM and the IC50 cell viability (ICRF193 200 nM) is greater than 45.8 µM.
Consider `CC(C)(C)NC[C@H](O)COc1cccc2c1CCCC2=O` [Levobunolol hydrochloride], for which the IC50 cell viability is, setting by setting: (ICRF193 0 nM) greater than 45.8 µM; (ICRF193 200 nM) greater than 45.8 µM.
On to `CC(C)(C)NCC(O)COc1ccccc1OCC1CCCO1` (centres undefined) [Bufetolol], for which the IC50 cell viability is greater than 45.8 µM (ICRF193 0 nM) and greater than 45.8 µM (ICRF193 200 nM).
In turn, `FC(F)(F)C(F)(F)C(F)(F)C(F)(F)C(F)(F)C(F)(F)C(F)(F)C(F)(F)Br` [1-Bromoheptadecafluorooctane] yielded an IC50 cell viability (ICRF193 0 nM) greater than 45.8 µM and an IC50 cell viability (ICRF193 200 nM) greater than 45.8 µM.
Regarding `O=C(O)[C@@H]1CCCN1` [L-Proline], the IC50 cell viability reads like this: (ICRF193 0 nM) greater than 45.8 µM; (ICRF193 200 nM) greater than 45.8 µM.
On to `C[C@@H](c1ncncc1F)[C@](O)(Cn1cncn1)c1ccc(F)cc1F` [Voriconazole], for which the IC50 cell viability by setting is: (ICRF193 0 nM) greater than 45.8 µM; (ICRF193 200 nM) greater than 45.8 µM.
On to `C[C@H]1NCc2cc(-c3ccc4c(=O)c(C(=O)O)cn(C5CC5)c4c3OC(F)F)ccc21` [Garenoxacin mesylate hydrate], for which the IC50 cell viability by setting is: (ICRF193 0 nM) greater than 45.8 µM; (ICRF193 200 nM) greater than 45.8 µM.
For the compound `O=C(O)c1cc(/N=N/c2ccc(S(=O)(=O)Nc3ccccn3)cc2)ccc1O` [Sulfasalazine], the IC50 cell viability runs as follows: (ICRF193 0 nM) greater than 45.8 µM; (ICRF193 200 nM) greater than 45.8 µM.
`CCCC(=O)O[C@]1(C(=O)COC(C)=O)CC[C@H]2[C@@H]3C[C@H](F)C4=CC(=O)C=C[C@]4(C)[C@@]3(F)[C@@H](O)C[C@@]21C` [Difluprednate] registered an IC50 cell viability (ICRF193 0 nM) greater than 45.8 µM and an IC50 cell viability (ICRF193 200 nM) greater than 45.8 µM.
As to `OC[C@@H](O)[C@@H](O[C@@H]1O[C@H](CO)[C@H](O)[C@H](O)[C@H]1O)[C@H](O)[C@@H](O)CO` [Lactitol], the IC50 cell viability is, setting by setting: (ICRF193 0 nM) greater than 45.8 µM; (ICRF193 200 nM) greater than 45.8 µM.
Regarding `CCCC(O)C(CC)CO` (centres undefined) [2-Ethyl-1,3-hexanediol], the IC50 cell viability was greater than 45.8 µM (ICRF193 0 nM) and greater than 45.8 µM (ICRF193 200 nM).
Take `CN(C)c1ccc(O)c2c1C[C@H]1C[C@H]3[C@H](N(C)C)C(O)=C(C(N)=O)C(=O)[C@@]3(O)C(O)=C1C2=O` [Minocycline hydrochloride]: the IC50 cell viability is greater than 45.8 µM (ICRF193 0 nM) and greater than 45.8 µM (ICRF193 200 nM).
For `O=C(O)CCC(=O)O` [Butanedioic acid], the IC50 cell viability by setting is: (ICRF193 0 nM) greater than 45.8 µM; (ICRF193 200 nM) greater than 45.8 µM.
Turning to `CSc1ccc(C(=O)c2[nH]c(=O)[nH]c2C)cc1` [Enoximone], the IC50 cell viability is, setting by setting: (ICRF193 0 nM) greater than 45.8 µM; (ICRF193 200 nM) greater than 45.8 µM.
`O=C(O)Cc1ccccc1` [Phenylacetic acid]: the IC50 cell viability reads like this: (ICRF193 0 nM) greater than 45.8 µM; (ICRF193 200 nM) greater than 45.8 µM.
Regarding `Nc1ccc(S(=O)(=O)NC(=O)c2ccccc2)cc1` [Sulfabenzamide], the IC50 cell viability is greater than 45.8 µM (ICRF193 0 nM) and greater than 45.8 µM (ICRF193 200 nM).
For the compound `O[C@H]1[C@H](O)[C@@H](O)[C@H](O)[C@@H](O)[C@H]1O` [myo-Inositol], the IC50 cell viability is greater than 45.8 µM (ICRF193 0 nM) and greater than 45.8 µM (ICRF193 200 nM).
`CCCCc1ncc(/C=C(\Cc2cccs2)C(=O)O)n1Cc1ccc(C(=O)O)cc1` [Eprosartan mesylate]: the IC50 cell viability was greater than 45.8 µM (ICRF193 0 nM) and greater than 45.8 µM (ICRF193 200 nM).
Regarding `O=c1c2c(c1=O)N(CCP(=O)(O)O)CCCN2` [EAA-090], the IC50 cell viability is greater than 45.8 µM (ICRF193 0 nM) and greater than 45.8 µM (ICRF193 200 nM).
Take `CCCCC/C=C\C/C=C\C/C=C\CCCCC(=O)O` [Gamolenic acid]: the IC50 cell viability is, setting by setting: (ICRF193 0 nM) greater than 45.8 µM; (ICRF193 200 nM) greater than 45.8 µM.
`c1ccc2c(c1)sc1ccccc12` [Dibenzothiophene]: the IC50 cell viability was greater than 45.8 µM (ICRF193 0 nM) and greater than 45.8 µM (ICRF193 200 nM).
`C[C@@H](O)[C@H]1C(=O)N2C(C(=O)[O-])=C(SC3Cn4cnc[n+]4C3)[C@H](C)[C@H]12` (some centres undefined) [Biapenem]: the IC50 cell viability is greater than 45.8 µM (ICRF193 0 nM) and greater than 45.8 µM (ICRF193 200 nM).
With `CCCC(=O)Nc1ccc(OCC(O)CNC(C)C)c(C(C)=O)c1` (centres undefined) [Acebutolol hydrochloride], the IC50 cell viability is greater than 45.8 µM (ICRF193 0 nM) and greater than 45.8 µM (ICRF193 200 nM).
On to `O=C1C2CC=CCC2C(=O)N1SC(Cl)(Cl)Cl` (centres undefined) [Captan], for which the IC50 cell viability (ICRF193 0 nM) is greater than 45.8 µM and the IC50 cell viability (ICRF193 200 nM) was greater than 45.8 µM.
On to `Oc1ccc([C@@H]2CNCc3c2ccc(O)c3O)cc1O` [Zelandopam], for which the IC50 cell viability by setting is: (ICRF193 0 nM) greater than 45.8 µM; (ICRF193 200 nM) greater than 45.8 µM.
For `C=C[C@H]1CN2CC[C@H]1C[C@@H]2[C@@H](O)c1ccnc2ccc(OC)cc12` [Quinidine hydrochloride monohydrate], the IC50 cell viability is, setting by setting: (ICRF193 0 nM) greater than 45.8 µM; (ICRF193 200 nM) greater than 45.8 µM.
In the case of `CCCC(CCC)C(=O)O[C@H]1C[C@H]2CC[C@@H](C1)[N+]2(C)C` [Anisotropine methylbromide], the IC50 cell viability by setting is: (ICRF193 0 nM) greater than 45.8 µM; (ICRF193 200 nM) greater than 45.8 µM.
As for `C[C@]12C=CC(=O)C=C1CC[C@@H]1[C@@H]2[C@@H](O)C[C@@]2(C)[C@H]1CC[C@]2(O)C(=O)COC(=O)c1cccc(S(=O)(=O)O)c1` [Predocol], the IC50 cell viability is greater than 45.8 µM (ICRF193 0 nM) and greater than 45.8 µM (ICRF193 200 nM).
On to `C=C1C[C@@H]2[C@H](CC[C@]3(C)C(=O)CC[C@@H]23)[C@@]2(C)C=CC(=O)C=C12` [Exemestane], for which the IC50 cell viability by setting is: (ICRF193 0 nM) greater than 45.8 µM; (ICRF193 200 nM) greater than 45.8 µM.
As for `C=Cc1c(C)c2cc3nc(c(CC(=O)N[C@@H](CC(=O)O)C(=O)O)c4[nH]c(cc5nc(cc1[nH]2)C(C)=C5CC)c(C)c4C(=O)O)[C@@H](CCC(=O)O)[C@@H]3C` [Talaporfin sodium], the IC50 cell viability by setting is: (ICRF193 0 nM) greater than 45.8 µM; (ICRF193 200 nM) greater than 45.8 µM.
As for `CCOc1ccc2c(c1)C(C)=CC(C)(C)N2` [Ethoxyquin], the IC50 cell viability is greater than 45.8 µM (ICRF193 0 nM) and greater than 45.8 µM (ICRF193 200 nM).

For the origin of these results see the supplement of paper PMC12137928.
